Test results from patent US20200199102A1, “COMPOUNDS THAT PARTICIPATE IN COOPERATIVE BINDING AND USES THEREOF” (Revolution Medicines, Inc., priority 2017, published 2020).
pIC50: −log10 of the molar value. Where a SMILES comes first, the peptide text is derived from it. [ ]: non-standard residue; d: D form. MeBmt = C/C=C/C[C@@H](C)[C@@H](O)[C@H](NC)C(=O)O; NMeY = CN[C@@H](Cc1ccc(O)cc1)C(=O)O; NMeF = CN[C@@H](Cc1ccccc1)C(=O)O; NMeL = CN[C@@H](CC(C)C)C(=O)O; dNMeV = CN[C@@H](C(=O)O)C(C)C; Tle = CC(C)(C)[C@H](N)C(=O)O; NMeNva = CCC[C@H](NC)C(=O)O; NMeV = CN[C@H](C(=O)O)C(C)C; NMeA = CN[C@@H](C)C(=O)O; Abu = CC[C@H](N)C(=O)O; Sar = CNCC(=O)O

Target: T1, Cyclophilin A (Homo sapiens, UniProt P62937)
T1 construct: made in house
Assay: AlphaLISA inhibition of binding of biotinylated Cyclosporin A to FLAG tagged Cyclophilin A
Conditions: for % signal: AlphaLISA signal; for % signal / % inhibition of CsA binding to Cyclophilin A: test concentration not given; for pIC50: read-out: IC50 value of CsA binding to Cyclophilin A
Text: The binding of compounds of the invention to Cyclophilin A can be determined using the following protocol.
This protocol utilizes Perkin Elmers AlphaLISA technology platform to detect cyclosporine analogues by measuring the inhibition of binding of biotinylated Cyclosporin A to FLAG tagged Cyclophilin A.
10×TBST Buffer (Boston BioProducts IBB-181), Biotinylated Cyclosporin A (in-house), FLAG tagged Cyclophilin A (in-house); anti-FLAG Donor beads (PerkinElmer AS103) and Streptavidin Acceptor beads (PerkinElmer AL125); Compounds in DMSO (in-house), Cyclosporin A (LC Labs Cat #C-6000).
Add 20 uL of 6 nM Biotinylated CsA working stock to each well of the 96-well plate. Add 1 uL of test compound (100% DMSO) to each well of the plate using the Janus MTD head and P20 tips (except control wells). Add 1 uL of DMSO to negative control wells and 1 uL of 500 uM Cyclosporin A solution to positive control wells. In the dark, add 20 uL of combined Donor/Acceptor beads to each well. Incubate in the dark for 30 minutes at room temperature. In the dark, add 10 uL of 25 nM Flag tagged CypA working stock to each well. Incubate in the dark for 60 minutes at room temperature. Protect plate from light until reading on Biotek Synergy2 Plate Reader; Alphalisa 96-well protocol (680 excitation/615 emission).

T1 sequence (P62937 whole entry, species assumed): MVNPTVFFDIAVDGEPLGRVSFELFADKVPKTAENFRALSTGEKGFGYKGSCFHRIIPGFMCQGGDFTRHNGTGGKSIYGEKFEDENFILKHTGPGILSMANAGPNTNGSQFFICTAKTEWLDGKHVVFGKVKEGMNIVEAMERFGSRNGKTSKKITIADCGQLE

| Structure (SMILES) | % signal [%] | pIC50 | % inhibition of CsA binding to Cyclophilin A [%] |
| --- | --- | --- | --- |
| C/C=C/C[C@@H](C)[C@@H](O)[C@H]1C(=O)N[C@@H](CC)C(=O)N(C)CC(=O)N(C)[C@@H](Cc2ccc(O)cc2)C(=O)N[C@@H](CC(C)C)C(=O)N(C)[C@@H](CC(C)C)C(=O)N[C@@H](CC(C)C)C(=O)N[C@H](C)C(=O)N(C)[C@@H](CC(C)C)C(=O)N(C)[C@@H](CC(C)C)C(=O)N(C)[C@@H](C(C)C)C(=O)N1C [Compound C64] (cyclo([MeBmt][Abu][Sar][NMeY]L[NMeL]L[dA][NMeL][NMeL][NMeV])) | 28.50 | > 5.70 | 71.50 |
| C/C=C/C[C@@H](C)[C@@H](O)[C@H]1C(=O)N[C@@H](CC)C(=O)N(C)CC(=O)N(C)[C@@H](C(C)C)C(=O)N[C@@H](C(C)(C)C)C(=O)N(C)[C@@H](C)C(=O)N[C@@H](CC(C)C)C(=O)N[C@H](C)C(=O)N(C)[C@@H](CC(C)C)C(=O)N(C)[C@@H](CC(C)C)C(=O)N(C)[C@@H](C(C)C)C(=O)N1C [Compound C77] (cyclo([MeBmt][Abu][Sar][NMeV][Tle][NMeA]L[dA][NMeL][NMeL][NMeV])) | 0.44 | > 5.70 | – |
| C/C=C/C[C@@H](C)[C@@H](O)[C@H]1C(=O)N[C@@H](CC)C(=O)N(C)CC(=O)N(C)[C@@H](Cc2ccc(O)cc2)C(=O)N[C@@H](CC(C)C)C(=O)N(C)[C@@H](C)C(=O)N[C@@H](C)C(=O)N[C@H](C)C(=O)N(C)[C@@H](CC(C)C)C(=O)N(C)[C@@H](CC(C)C)C(=O)N(C)[C@@H](C(C)C)C(=O)N1C [Compound C16] (cyclo([MeBmt][Abu][Sar][NMeY]L[NMeA]A[dA][NMeL][NMeL][NMeV])) | 2.56 | > 5.70 | 97.44 |
| C/C=C/C[C@@H](C)[C@@H](O)[C@H]1C(=O)N[C@@H](CC)C(=O)N(C)CC(=O)N(C)[C@H](C(C)C)C(=O)N[C@@H](C(C)C)C(=O)N(C)[C@@H](CC(C)C)C(=O)N[C@@H](CC)C(=O)N[C@H](C)C(=O)N(C)[C@@H](CC(C)C)C(=O)N(C)[C@@H](CC(C)C)C(=O)N(C)[C@@H](C(C)C)C(=O)N1C [Compound C103] (cyclo([Abu][Sar][dNMeV]V[NMeL][Abu][dA][NMeL][NMeL][NMeV][MeBmt])) | 13.65 | > 5.70 | 86.35 |
| C/C=C/C[C@@H](C)[C@@H](O)[C@H]1C(=O)N[C@@H](CC)C(=O)N(C)CC(=O)N(C)CC(=O)N[C@@H](C(C)C)C(=O)N(C)[C@@H](C)C(=O)N[C@@H](CC(C)C)C(=O)N[C@H](C)C(=O)N(C)[C@@H](CC(C)C)C(=O)N(C)[C@@H](CC(C)C)C(=O)N(C)[C@@H](C(C)C)C(=O)N1C [Compound C85] (cyclo([MeBmt][Abu][Sar][Sar]V[NMeA]L[dA][NMeL][NMeL][NMeV])) | 0.87 | > 5.70 | 99.13 |
| C/C=C/C[C@@H](C)[C@@H](O)[C@H]1C(=O)N[C@@H](CC)C(=O)N(C)CC(=O)N(C)[C@@H](Cc2ccccc2)C(=O)N[C@@H](C(C)(C)C)C(=O)N(C)[C@@H](C)C(=O)N[C@@H](CC(C)C)C(=O)N[C@H](C)C(=O)N(C)[C@@H](CC(C)C)C(=O)N(C)[C@@H](CC(C)C)C(=O)N(C)[C@@H](C(C)C)C(=O)N1C [Compound C72] (cyclo([MeBmt][Abu][Sar][NMeF][Tle][NMeA]L[dA][NMeL][NMeL][NMeV])) | 2.78 | > 5.70 | 97.22 |
| C/C=C/C[C@@H](C)[C@@H](O)[C@H]1C(=O)N[C@@H](CC)C(=O)N(C)CC(=O)N(C)[C@@H](Cc2ccc(O)cc2)C(=O)N[C@@H](C(C)C)C(=O)N(C)[C@@H](C)C(=O)N[C@@H](CC(C)C)C(=O)N[C@H](C)C(=O)N(C)[C@@H](CC(C)C)C(=O)N(C)[C@@H](CC(C)C)C(=O)N(C)[C@@H](C(C)C)C(=O)N1C [Compound C88] (cyclo([MeBmt][Abu][Sar][NMeY]V[NMeA]L[dA][NMeL][NMeL][NMeV])) | 5.94 | > 5.70 | 94.06 |
| C/C=C/C[C@@H](C)[C@@H](O)[C@H]1C(=O)N[C@@H](CC)C(=O)N(C)CC(=O)N(C)[C@@H](C(C)C)C(=O)N[C@@H](C(C)C)C(=O)N(C)[C@@H](C)C(=O)N[C@@H](CC(C)C)C(=O)N[C@H](C)C(=O)N(C)[C@@H](CC(C)C)C(=O)N(C)[C@@H](CC(C)C)C(=O)N(C)[C@@H](C(C)C)C(=O)N1C [Compound C89] (cyclo([MeBmt][Abu][Sar][NMeV]V[NMeA]L[dA][NMeL][NMeL][NMeV])) | 3.10 | > 5.70 | 96.90 |
| C/C=C/C[C@@H](C)[C@@H](O)[C@H]1C(=O)N[C@@H](CC)C(=O)N(C)CC(=O)N(C)[C@@H](C(C)C)C(=O)N[C@@H](CC(C)C)C(=O)N(C)[C@@H](CC(C)C)C(=O)N[C@@H](CC(C)C)C(=O)N[C@H](C)C(=O)N(C)[C@@H](CC(C)C)C(=O)N(C)[C@@H](CC(C)C)C(=O)N(C)[C@@H](C(C)C)C(=O)N1C [Compound C65] (cyclo([MeBmt][Abu][Sar][NMeV]L[NMeL]L[dA][NMeL][NMeL][NMeV])) | 0.27 | > 5.70 | 99.73 |
| C/C=C/C[C@@H](C)[C@@H](O)[C@H]1C(=O)N[C@@H](CC)C(=O)N(C)CC(=O)N(C)[C@@H](CCC)C(=O)N[C@@H](CC(C)C)C(=O)N(C)[C@@H](CC(C)C)C(=O)N[C@@H](CC(C)C)C(=O)N[C@H](C)C(=O)N(C)[C@@H](CC(C)C)C(=O)N(C)[C@@H](CC(C)C)C(=O)N(C)[C@@H](C(C)C)C(=O)N1C [Compound C66] (cyclo([MeBmt][Abu][Sar][NMeNva]L[NMeL]L[dA][NMeL][NMeL][NMeV])) | 10.95 | > 5.70 | 89.05 |
| C/C=C/C[C@@H](C)[C@@H](O)[C@H]1C(=O)N[C@@H](CC)C(=O)N(C)CC(=O)N(C)CC(=O)N[C@@H](C(C)C)C(=O)N(C)[C@@H](CC(C)C)C(=O)N[C@@H](CC)C(=O)N[C@H](C)C(=O)N(C)[C@@H](CC(C)C)C(=O)N(C)[C@@H](CC(C)C)C(=O)N(C)[C@@H](C(C)C)C(=O)N1C [Compound C97] (cyclo([Abu][Sar][Sar]V[NMeL][Abu][dA][NMeL][NMeL][NMeV][MeBmt])) | 6.42 | > 5.70 | 93.58 |
| C/C=C/C[C@@H](C)[C@@H](O)[C@H]1C(=O)N[C@@H](CC)C(=O)N(C)CC(=O)N(C)[C@@H](Cc2ccccc2)C(=O)N[C@@H](CC(C)C)C(=O)N(C)[C@@H](C)C(=O)N[C@@H](C)C(=O)N[C@H](C)C(=O)N(C)[C@@H](CC(C)C)C(=O)N(C)[C@@H](CC(C)C)C(=O)N(C)[C@@H](C(C)C)C(=O)N1C [Compound C12] (cyclo([MeBmt][Abu][Sar][NMeF]L[NMeA]A[dA][NMeL][NMeL][NMeV])) | 3.22 | > 5.70 | 96.78 |
| C/C=C/C[C@@H](C)[C@@H](O)[C@H]1C(=O)N[C@@H](CC)C(=O)N(C)CC(=O)N(C)[C@@H](Cc2ccc(O)cc2)C(=O)N[C@@H](C(C)(C)C)C(=O)N(C)[C@@H](C)C(=O)N[C@@H](CC(C)C)C(=O)N[C@H](C)C(=O)N(C)[C@@H](CC(C)C)C(=O)N(C)[C@@H](CC(C)C)C(=O)N(C)[C@@H](C(C)C)C(=O)N1C [Compound C76] (cyclo([MeBmt][Abu][Sar][NMeY][Tle][NMeA]L[dA][NMeL][NMeL][NMeV])) | 5.09 | > 5.70 | 94.91 |
| C/C=C/C[C@@H](C)[C@@H](O)[C@H]1C(=O)N[C@@H](CC)C(=O)N(C)CC(=O)N(C)[C@@H](CC(C)C)C(=O)N[C@@H](C(C)(C)C)C(=O)N(C)[C@@H](C)C(=O)N[C@@H](CC(C)C)C(=O)N[C@H](C)C(=O)N(C)[C@@H](CC(C)C)C(=O)N(C)[C@@H](CC(C)C)C(=O)N(C)[C@@H](C(C)C)C(=O)N1C [Compound C74] (cyclo([MeBmt][Abu][Sar][NMeL][Tle][NMeA]L[dA][NMeL][NMeL][NMeV])) | 4.92 | > 5.70 | 95.08 |
| C/C=C/C[C@@H](C)[C@@H](O)[C@H]1C(=O)N[C@@H](CC)C(=O)N(C)CC(=O)N(C)[C@@H](C)C(=O)N[C@@H](C(C)(C)C)C(=O)N(C)[C@@H](C)C(=O)N[C@@H](CC(C)C)C(=O)N[C@H](C)C(=O)N(C)[C@@H](CC(C)C)C(=O)N(C)[C@@H](CC(C)C)C(=O)N(C)[C@@H](C(C)C)C(=O)N1C [Compound C70] (cyclo([MeBmt][Abu][Sar][NMeA][Tle][NMeA]L[dA][NMeL][NMeL][NMeV])) | 0.05 | > 5.70 | 99.95 |
| C/C=C/C[C@@H](C)[C@@H](O)[C@H]1C(=O)N[C@@H](CC)C(=O)N(C)CC(=O)N(C)[C@@H](Cc2ccc(O)cc2)C(=O)N[C@@H](C(C)C)C(=O)N(C)[C@@H](CC(C)C)C(=O)N[C@@H](CC)C(=O)N[C@H](C)C(=O)N(C)[C@@H](CC(C)C)C(=O)N(C)[C@@H](CC(C)C)C(=O)N(C)[C@@H](C(C)C)C(=O)N1C [Compound C100] (cyclo([Abu][Sar][NMeY]V[NMeL][Abu][dA][NMeL][NMeL][NMeV][MeBmt])) | 4.28 | > 5.70 | – |
